# Data: patent US9708314B2, “Heterocyclic amide compound” (NISSAN CHEMICAL INDUSTRIES, LTD., priority 2013, dated 2017)
# Legend:
# Assay type in all cases: in vivo
# Conditions in all cases: application to foliage, 320 g/ha
# Abutilon theophrasti = test: Test Example 4: herbicidal effect by application to foliage (diluvial soil, plastic box)
# Description: (§1) 5 Herbicidal ratio of 90% or more (almost completely withered) 4 Herbicidal ratio of 70% or more and less than 90% 3 Herbicidal ratio of 40% or more and less than 70% 2 Herbicidal ratio of 20% or more and less than 40% 1 Herbicidal ratio of 5% or more and less than 20% 0 Herbicidal ratio of 5% or less (almost no effect) [Test Example 4] Herbicidal Effect Test by Application to Foliage Sterilized diluvial soil was placed in a plastic box having a length of 21 cm, a width of 13 cm, and a depth of 7 cm. Each of the seeds of Digitaria ciliaris, Setaria viridis, Echinochloa crus-galli var. crus-galli, Avena fatua, Alopecurus myosuroides, Lolium multiflorum Lam., Apera spica-venti., Abutilon theophrasti, Amaranthus retroflexus, Chenopodium album, Stellaria media, Galium spurium, Veronica persica, Zea mays, Glycine max, Oryza sativa, Triticum aestivum, Beta vulgaris ssp. vulgaris, and Brassica campestris L. was sowed in a spot-like manner and was covered with the soil of about 1.5 cm thick. Thereafter, the plants were grown in the greenhouse of 25° C. to 30° C. After the plants were grown for 14 days, the emulsion agent containing the compound of the present invention prepared in accordance with Formulation Example 2 was diluted with water so as to be a predetermined herbicide amount and the diluted compound was uniformly applied to a stem and leaf part with a small-size spray. Three weeks after the herbicide application, effects on each plant were investigated in accordance with the criteria of Test Example 1. A: Echinochloa oryzicola Vasing., B: Scirpus juncoides, C: Monochoria vaginalis, D: Leptochloa chinensis, E: Cyperus difformis, F: Digitaria ciliaris, G: Setaria viridis, H: Echinochloa crus-galli var. crus-galli, I: Avena fatua, J: Alopecurus myosuroides, K: Lolium multiflorum Lam., L: Apera spica-venti., M: Abutilon theophrasti, N: Amaranthus retroflexus, O: Chenopodium album, P: Stellaria media, Q: Galium spurium, R: Veronica persica, a: transplanted Oryza sativa, b: directly sowed Oryza sativa, c: Zea mays, d: Glycine max, e: Triticum aestivum, f: Beta vulgaris ssp. vulgaris, and g: Brassica campestris L. The application herbicide amount (g/ha) means an amount that a concentration is adjusted so that, when an application amount is converted into per hectare (1 ha), the herbicide is applied by the number of grams (g) of the described value.
# Alopecurus myosuroides = test: as above
# Description: as §1
# Amaranthus retroflexus = test: as above
# Description: as §1
# Apera spica-venti. = test: as above
# Description: as §1
# Avena fatua = test: as above
# Description: as §1
# Chenopodium album = test: as above
# Description: as §1
# Digitaria ciliaris = test: as above
# Description: as §1
# [1] = test system: Echinochloa crus-galli var. crus-galli; test: as above
# Description: as §1
# Galium spurium = test: as above
# Description: as §1
# Lolium multiflorum Lam. = test: as above
# Description: as §1
# Setaria viridis = test: as above
# Description: as §1
# Stellaria media = test: as above
# Description: as §1
# Veronica persica = test: as above
# Description: as §1
# [2] = test system: Beta vulgaris ssp. vulgaris; test: Test Example 4: effect on crop by application to foliage (diluvial soil, plastic box)
# Description: as §1
# Brassica campestris L. = test: as above
# Description: as §1
# Glycine max = test: as above
# Description: as §1
# Triticum aestivum = test: as above
# Description: as §1
# Zea mays = test: as above
# Description: as §1
# [3] = test system: directly sowed Oryza sativa; test: as above
# Description: as §1
SMILES,"herbicidal effect, M (Abutilon theophrasti) (Abutilon theophrasti)","herbicidal effect, J (Alopecurus myosuroides) (Alopecurus myosuroides)","herbicidal effect, N (Amaranthus retroflexus) (Amaranthus retroflexus)","herbicidal effect, L (Apera spica-venti.) (Apera spica-venti.)","herbicidal effect, I (Avena fatua) (Avena fatua)","herbicidal effect, O (Chenopodium album) (Chenopodium album)","herbicidal effect, F (Digitaria ciliaris) (Digitaria ciliaris)","herbicidal effect, H (Echinochloa crus-galli var. crus-galli) [1]","herbicidal effect, Q (Galium spurium) (Galium spurium)","herbicidal effect, K (Lolium multiflorum Lam.) (Lolium multiflorum Lam.)","herbicidal effect, G (Setaria viridis) (Setaria viridis)","herbicidal effect, P (Stellaria media) (Stellaria media)","herbicidal effect, R (Veronica persica) (Veronica persica)","effect on crop, f (Beta vulgaris ssp. vulgaris) [2]","effect on crop, g (Brassica campestris L.) (Brassica campestris L.)","effect on crop, c (Glycine max) (Glycine max)","effect on crop, e (Triticum aestivum) (Triticum aestivum)","effect on crop, b (Zea mays) (Zea mays)","effect on crop, d (directly sowed Oryza sativa) [3]"
CC(C)c1nnc2c(C(=O)Nc3ncnn3C)ccc(C(F)(F)F)n12 [4-001],5 (Herbicidal ratio of 90% or more (almost completely withered)),0 (Herbicidal ratio of 5% or less (almost no effect)),5 (Herbicidal ratio of 90% or more (almost completely withered)),0 (Herbicidal ratio of 5% or less (almost no effect)),1 (Herbicidal ratio of 5% or more and less than 20%),5 (Herbicidal ratio of 90% or more (almost completely withered)),1 (Herbicidal ratio of 5% or more and less than 20%),3 (Herbicidal ratio of 40% or more and less than 70%),3 (Herbicidal ratio of 40% or more and less than 70%),0 (Herbicidal ratio of 5% or less (almost no effect)),2 (Herbicidal ratio of 20% or more and less than 40%),3 (Herbicidal ratio of 40% or more and less than 70%),3 (Herbicidal ratio of 40% or more and less than 70%),2 (Herbicidal ratio of 20% or more and less than 40%),0 (Herbicidal ratio of 5% or less (almost no effect)),0 (Herbicidal ratio of 5% or less (almost no effect)),0 (Herbicidal ratio of 5% or less (almost no effect)),0 (Herbicidal ratio of 5% or less (almost no effect)),2 (Herbicidal ratio of 20% or more and less than 40%)
CC(C)c1nnc2c(C(=O)Nc3ncn[nH]3)ccc(C(F)(F)F)n12 [4-004],0 (Herbicidal ratio of 5% or less (almost no effect)),0 (Herbicidal ratio of 5% or less (almost no effect)),0 (Herbicidal ratio of 5% or less (almost no effect)),0 (Herbicidal ratio of 5% or less (almost no effect)),0 (Herbicidal ratio of 5% or less (almost no effect)),4 (Herbicidal ratio of 70% or more and less than 90%),0 (Herbicidal ratio of 5% or less (almost no effect)),0 (Herbicidal ratio of 5% or less (almost no effect)),0 (Herbicidal ratio of 5% or less (almost no effect)),0 (Herbicidal ratio of 5% or less (almost no effect)),0 (Herbicidal ratio of 5% or less (almost no effect)),0 (Herbicidal ratio of 5% or less (almost no effect)),0 (Herbicidal ratio of 5% or less (almost no effect)),0 (Herbicidal ratio of 5% or less (almost no effect)),0 (Herbicidal ratio of 5% or less (almost no effect)),0 (Herbicidal ratio of 5% or less (almost no effect)),0 (Herbicidal ratio of 5% or less (almost no effect)),0 (Herbicidal ratio of 5% or less (almost no effect)),0 (Herbicidal ratio of 5% or less (almost no effect))
Cc1nnc(NC(=O)c2ccc(C(F)(F)F)n3c(=O)n(C)nc23)o1 [6-001],3 (Herbicidal ratio of 40% or more and less than 70%),0 (Herbicidal ratio of 5% or less (almost no effect)),3 (Herbicidal ratio of 40% or more and less than 70%),0 (Herbicidal ratio of 5% or less (almost no effect)),0 (Herbicidal ratio of 5% or less (almost no effect)),4 (Herbicidal ratio of 70% or more and less than 90%),1 (Herbicidal ratio of 5% or more and less than 20%),1 (Herbicidal ratio of 5% or more and less than 20%),2 (Herbicidal ratio of 20% or more and less than 40%),0 (Herbicidal ratio of 5% or less (almost no effect)),2 (Herbicidal ratio of 20% or more and less than 40%),4 (Herbicidal ratio of 70% or more and less than 90%),2 (Herbicidal ratio of 20% or more and less than 40%),3 (Herbicidal ratio of 40% or more and less than 70%),0 (Herbicidal ratio of 5% or less (almost no effect)),0 (Herbicidal ratio of 5% or less (almost no effect)),0 (Herbicidal ratio of 5% or less (almost no effect)),0 (Herbicidal ratio of 5% or less (almost no effect)),0 (Herbicidal ratio of 5% or less (almost no effect))
Cc1nnc(NC(=O)c2ccc(C(F)(F)F)n3c(=O)n(C(C)C)nc23)o1 [6-005],4 (Herbicidal ratio of 70% or more and less than 90%),1 (Herbicidal ratio of 5% or more and less than 20%),3 (Herbicidal ratio of 40% or more and less than 70%),1 (Herbicidal ratio of 5% or more and less than 20%),0 (Herbicidal ratio of 5% or less (almost no effect)),3 (Herbicidal ratio of 40% or more and less than 70%),3 (Herbicidal ratio of 40% or more and less than 70%),3 (Herbicidal ratio of 40% or more and less than 70%),1 (Herbicidal ratio of 5% or more and less than 20%),1 (Herbicidal ratio of 5% or more and less than 20%),1 (Herbicidal ratio of 5% or more and less than 20%),1 (Herbicidal ratio of 5% or more and less than 20%),1 (Herbicidal ratio of 5% or more and less than 20%),1 (Herbicidal ratio of 5% or more and less than 20%),0 (Herbicidal ratio of 5% or less (almost no effect)),0 (Herbicidal ratio of 5% or less (almost no effect)),0 (Herbicidal ratio of 5% or less (almost no effect)),0 (Herbicidal ratio of 5% or less (almost no effect)),0 (Herbicidal ratio of 5% or less (almost no effect))
